Laboratory results: PubChem BioAssay AID248 (DTP/NCI, 2004)
“And” between values parts separate entries of the source, which are not always exact repeats. Identical values can stand only once. Inconclusive results and toxic doses are left out. Rule as the data show it: active = T/C of 150% or more; inactive = T/C below 125%.

System: L1210 leukemia ip in BDF1 mice, survival T/C
Assay: NCI In Vivo Anticancer Drug Screen. Data for tumor model L1210 Leukemia (intraperitoneal) in B6D2F1 (BDF1) mice
Settings: endpoint: mean survival time, higher = longer survival
Procedure, shortened: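 Each compound was tested against a transplantable tumor grown in mice. The endpoint was survival, with treated animals benchmarked against vehicle controls as a simple ratio.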

[1] = dose: 50.0 mg/kg/injection, schedule: Q01DX001 (ip), vehicle: carboxymethylcellulose (CMC)
[2] = dose: 100.0 mg/kg/injection, schedule: Q01DX001 (ip), vehicle: carboxymethylcellulose (CMC)
[3] = dose: 200.0 mg/kg/injection, schedule: Q01DX001 (ip), vehicle: carboxymethylcellulose (CMC)
[4] = dose: 400.0 mg/kg/injection, schedule: Q01DX001 (ip), vehicle: carboxymethylcellulose (CMC)
[5] = dose: 100.0 mg/kg/injection, schedule: Q01DX001 (ip), vehicle: saline
[6] = dose: 200.0 mg/kg/injection, schedule: Q01DX001 (ip), vehicle: saline
[7] = dose: 400.0 mg/kg/injection, schedule: Q01DX001 (ip), vehicle: saline
[8] = dose: 100.0 mg/kg/injection, schedule: Q04DX003 (ip), vehicle: saline with Tween-80
[9] = dose: 200.0 mg/kg/injection, schedule: Q04DX003 (ip), vehicle: saline with Tween-80
[10] = dose: 400.0 mg/kg/injection, schedule: Q04DX003 (ip), vehicle: saline with Tween-80
[11] = dose: 100.0 mg/kg/injection, schedule: Q04DX003 (ip), vehicle: Klucel (hydroxypropylcellulose) (HPC)
[12] = dose: 200.0 mg/kg/injection, schedule: Q04DX003 (ip), vehicle: Klucel (hydroxypropylcellulose) (HPC)
[13] = dose: 400.0 mg/kg/injection, schedule: Q04DX003 (ip), vehicle: Klucel (hydroxypropylcellulose) (HPC)
[14] = dose: 100.0 mg/kg/injection, schedule: Q01DX009 (ip), vehicle: Klucel (hydroxypropylcellulose) (HPC)
[15] = dose: 400.0 mg/kg/injection, schedule: Q01DX009 (ip), vehicle: Klucel (hydroxypropylcellulose) (HPC)
[16] = dose: 100.0 mg/kg/injection, schedule: Q01DX001 (ip), vehicle: saline with Tween-80
[17] = dose: 200.0 mg/kg/injection, schedule: Q01DX001 (ip), vehicle: saline with Tween-80
[18] = dose: 400.0 mg/kg/injection, schedule: Q01DX001 (ip), vehicle: saline with Tween-80
[19] = dose: 100.0 mg/kg/injection, schedule: Q04DX002 (ip), vehicle: saline
[20] = dose: 200.0 mg/kg/injection, schedule: Q04DX002 (ip), vehicle: saline
[21] = dose: 400.0 mg/kg/injection, schedule: Q04DX002 (ip), vehicle: saline
[22] = dose: 100.0 mg/kg/injection, schedule: Q04DX002 (ip), vehicle: saline with Tween-80
[23] = dose: 200.0 mg/kg/injection, schedule: Q04DX002 (ip), vehicle: saline with Tween-80
[24] = dose: 100.0 mg/kg/injection, schedule: Q04DX002 (ip), vehicle: Klucel (hydroxypropylcellulose) (HPC)
[25] = dose: 200.0 mg/kg/injection, schedule: Q04DX002 (ip), vehicle: Klucel (hydroxypropylcellulose) (HPC)

Measured: T/C

Cc1ccc(Cl)c(C2c3ccccc3Cc3ccc4ccccc4c32)c1 (centres undefined)
inactive: [1] 101 % of control | [2] 101 % of control | [3] 95 % of control | [4] 98 % of control

O=C(Nc1cccc(Cl)c1)OCCN(CCOC(=O)Nc1cccc(Cl)c1)Cc1ccccc1
inactive: [5] 106 % of control | [6] 95 % of control | [7] 97 % of control

COC(=O)c1ccc(Cl)c(NN)c1
inactive: [8] 100 % of control | [9] 100 % of control | [10] 105 % of control

O=S(=O)(OCCCl)OCCCl
inactive: dose: 25.0 mg/kg/injection, schedule: Q01DX010 (ip), vehicle: olive oil, sesame oil, peanut oil 100 % of control | dose: 37.5 mg/kg/injection, schedule: Q01DX010 (ip), vehicle: olive oil, sesame oil, peanut oil 102 % of control | dose: 50.0 mg/kg/injection, schedule: Q01DX010 (ip), vehicle: olive oil, sesame oil, peanut oil 97 % of control

O/N=C/c1nc2ccccc2s1
inactive: [11] 105 % of control | [12] 91 % of control | [13] 118 % of control

CCOc1ccccc1NC1=C(OC)C(=O)C(Nc2ccccc2OCC)=C(OC)C1=O
inactive: [1] 97 % of control | [2] 103 % of control | [14] 95 % of control | [11] 98 % of control | [3] 101 % of control | [12] 90 % of control | [4] 113 % of control | [15] 90 % of control | [13] 101 % of control

C1CCCN(/N=N/N2CCCCCC2)CC1
inactive: [16] 100 % of control | [17] 92 % of control | [18] 100 % of control

COC(=O)CC1CC(C=O)C1 (centres undefined)
inactive: [19] 105 % of control | [20] 102 % of control | [21] 105 % of control

CCOP(=O)(OCC)ON=C(Cl)Cl
inactive: dose: 0.78 mg/kg/injection, schedule: Q01DX009 (ip), vehicle: saline 97 % of control | dose: 0.78 mg/kg/injection, schedule: Q04DX002 (ip), vehicle: saline 101 % of control | dose: 1.56 mg/kg/injection, schedule: Q01DX009 (ip), vehicle: saline 97 % of control | dose: 1.56 mg/kg/injection, schedule: Q04DX002 (ip), vehicle: saline 98 % of control | dose: 3.12 mg/kg/injection, schedule: Q01DX009 (ip), vehicle: Klucel (hydroxypropylcellulose) (HPC) 95 % of control | dose: 3.12 mg/kg/injection, schedule: Q01DX009 (ip), vehicle: saline 93 % of control | dose: 3.12 mg/kg/injection, schedule: Q04DX002 (ip), vehicle: saline 101 % of control and 92 % of control | dose: 4.6 mg/kg/injection, schedule: Q01DX009 (ip), vehicle: Klucel (hydroxypropylcellulose) (HPC) 105 % of control | dose: 7.0 mg/kg/injection, schedule: Q01DX009 (ip), vehicle: Klucel (hydroxypropylcellulose) (HPC) 96 % of control

C=C1CC(CCCCC2CC(=C)C(=O)O2)OC1=O (centres undefined)
inactive: [19] 108 % of control | [20] 101 % of control | [21] 108 % of control

COc1ccc(/C=C2/CN(c3ccc(C(=O)O)cc3)C(=O)C2=O)cc1
inactive: [5] 95 % of control | [6] 98 % of control | [7] 98 % of control

CC1(c2ccccc2O)Nc2ccccc2S1 (centres undefined)
inactive: [8] 92 % of control | [9] 92 % of control | [10] 96 % of control

O=C(N/N=C/c1ccccc1[N+](=O)[O-])c1ccccc1
inactive: [14] 94 % of control | dose: 200.0 mg/kg/injection, schedule: Q01DX009 (ip), vehicle: Klucel (hydroxypropylcellulose) (HPC) 94 % of control | [15] 97 % of control

CCCCn1cnc2c(SC)ncnc21
inactive: dose: 50.0 mg/kg/injection, schedule: Q01DX001 (ip), vehicle: saline 101 % of control | [5] 107 % of control | [6] 103 % of control

O=C(Nc1cccc2ccccc12)O/N=C/c1ccccn1
inactive: dose: 50.0 mg/kg/injection, schedule: Q01DX009 (ip), vehicle: saline with Tween-80 94 % of control | dose: 100.0 mg/kg/injection, schedule: Q01DX009 (ip), vehicle: saline with Tween-80 86 % of control and 87 % of control | [8] 87 % of control | dose: 200.0 mg/kg/injection, schedule: Q01DX009 (ip), vehicle: saline with Tween-80 94 % of control | [9] 90 % of control | dose: 400.0 mg/kg/injection, schedule: Q01DX009 (ip), vehicle: saline with Tween-80 107 % of control | [10] 95 % of control

CC(=O)NC(C=O)CC(C=O)CO (centres undefined)
inactive: dose: 200.0 mg/kg/injection, schedule: Q04DX003 (ip), vehicle: saline 110 % of control | dose: 300.0 mg/kg/injection, schedule: Q04DX003 (ip), vehicle: saline 113 % of control

O=C1CC2(CCCCC2)C(=O)N1Nc1ccccc1
inactive: [11] 105 % of control | [12] 98 % of control | [13] 102 % of control

NC(CSS(=O)(=O)O)=NCCc1ccccc1
inactive: dose: 3.13 mg/kg/injection, schedule: Q04DX002 (ip), vehicle: Klucel (hydroxypropylcellulose) (HPC) 103 % of control | dose: 6.25 mg/kg/injection, schedule: Q04DX002 (ip), vehicle: Klucel (hydroxypropylcellulose) (HPC) 100 % of control | dose: 12.5 mg/kg/injection, schedule: Q04DX002 (ip), vehicle: Klucel (hydroxypropylcellulose) (HPC) 100 % of control

O=C1C2C3C=CC(CC3)C2C(=O)C2C3C=CC(C3)C12 (centres undefined)
inactive: [22] 101 % of control | [23] 93 % of control

Cc1cccc2c(N3CCOCC3)c3c(nc12)CCCCC3
inactive: [8] 96 % of control | [9] 95 % of control | [10] 101 % of control

COC1OCC(Cl)C(O)C1OS(C)(=O)=O (centres undefined)
inactive: [22] 96 % of control | [23] 100 % of control | dose: 400.0 mg/kg/injection, schedule: Q04DX002 (ip), vehicle: saline with Tween-80 104 % of control

CCCCc1cc([N+](=O)[O-])cc([N+](=O)[O-])c1OCN1C(=O)C2C3CCC(O3)C2C1=O (centres undefined)
inactive: [24] 113 % of control | [25] 98 % of control | dose: 400.0 mg/kg/injection, schedule: Q04DX002 (ip), vehicle: Klucel (hydroxypropylcellulose) (HPC) 106 % of control

CCCN1CCCN(CCC)C1=O
inactive: dose: 50.0 mg/kg/injection, schedule: Q04DX002 (ip), vehicle: Klucel (hydroxypropylcellulose) (HPC) 102 % of control | [24] 102 % of control | [25] 93 % of control

COC(=O)c1cc(N)ccc1Br
inactive: dose: 100.0 mg/kg/injection, schedule: Q04DX003 (sc), vehicle: olive oil, sesame oil, peanut oil 93 % of control | dose: 200.0 mg/kg/injection, schedule: Q04DX003 (sc), vehicle: olive oil, sesame oil, peanut oil 111 % of control | dose: 400.0 mg/kg/injection, schedule: Q04DX003 (sc), vehicle: olive oil, sesame oil, peanut oil 95 % of control

Cc1cc(C)c(C(=O)OC(c2ccccc2)C(c2ccccc2)N2CCOCC2)c(C)c1 (centres undefined)
inactive: dose: 75.0 mg/kg/injection, schedule: Q01DX001 (ip), vehicle: saline 96 % of control | dose: 150.0 mg/kg/injection, schedule: Q01DX001 (ip), vehicle: saline 97 % of control | dose: 300.0 mg/kg/injection, schedule: Q01DX001 (ip), vehicle: saline 86 % of control

CCN(CC)CCN(C(=S)Nc1ccccc1)c1ccccc1
inactive: dose: 25.0 mg/kg/injection, schedule: Q01DX009 (ip), vehicle: Klucel (hydroxypropylcellulose) (HPC) 103 % of control | dose: 50.0 mg/kg/injection, schedule: Q01DX009 (ip), vehicle: Klucel (hydroxypropylcellulose) (HPC) 102 % of control | [14] 96 % of control

Nc1cc2ccccc2c(Br)n1
inactive: [16] 110 % of control | dose: 100.0 mg/kg/injection, schedule: Q01DX009 (ip), vehicle: saline sonified 98 % of control | [17] 105 % of control | dose: 200.0 mg/kg/injection, schedule: Q01DX009 (ip), vehicle: saline sonified 93 % of control | [18] 100 % of control | dose: 400.0 mg/kg/injection, schedule: Q01DX009 (ip), vehicle: saline sonified 98 % of control
